Activity calls are given as the source filed them. The rule behind the calls is not given here.

Results on seven molecules are retold here after ChEMBL document CHEMBL2150859, “Design, synthesis, and evaluation of 3,5-disubstituted 7-azaindoles as Trk inhibitors with anticancer and antiangiogenic activities” (J Med Chem, 2012).

The nature of assay [1]: Selectivity ratio of Kd for PI3Kalpha to Kd for TRKA.
Assay [2] deals with T1, Phosphatidylinositol 4,5-bisphosphate 3-kinase catalytic subunit alpha isoform (Homo sapiens, UniProt P42336). Put plainly: Binding affinity to PI3Kalpha by high throughput assay.
Assay [3] addresses T1, Phosphatidylinositol 4,5-bisphosphate 3-kinase catalytic subunit alpha isoform. In words: Binding affinity to PI3Kalpha at 10 uM by high throughput binding assay relative to control.
Assay [4] has as its target T2, High affinity nerve growth factor receptor (Homo sapiens, UniProt P04629). In words: Binding affinity to TRKA by high throughput assay.
Target sequence in this assay (P04629 whole entry): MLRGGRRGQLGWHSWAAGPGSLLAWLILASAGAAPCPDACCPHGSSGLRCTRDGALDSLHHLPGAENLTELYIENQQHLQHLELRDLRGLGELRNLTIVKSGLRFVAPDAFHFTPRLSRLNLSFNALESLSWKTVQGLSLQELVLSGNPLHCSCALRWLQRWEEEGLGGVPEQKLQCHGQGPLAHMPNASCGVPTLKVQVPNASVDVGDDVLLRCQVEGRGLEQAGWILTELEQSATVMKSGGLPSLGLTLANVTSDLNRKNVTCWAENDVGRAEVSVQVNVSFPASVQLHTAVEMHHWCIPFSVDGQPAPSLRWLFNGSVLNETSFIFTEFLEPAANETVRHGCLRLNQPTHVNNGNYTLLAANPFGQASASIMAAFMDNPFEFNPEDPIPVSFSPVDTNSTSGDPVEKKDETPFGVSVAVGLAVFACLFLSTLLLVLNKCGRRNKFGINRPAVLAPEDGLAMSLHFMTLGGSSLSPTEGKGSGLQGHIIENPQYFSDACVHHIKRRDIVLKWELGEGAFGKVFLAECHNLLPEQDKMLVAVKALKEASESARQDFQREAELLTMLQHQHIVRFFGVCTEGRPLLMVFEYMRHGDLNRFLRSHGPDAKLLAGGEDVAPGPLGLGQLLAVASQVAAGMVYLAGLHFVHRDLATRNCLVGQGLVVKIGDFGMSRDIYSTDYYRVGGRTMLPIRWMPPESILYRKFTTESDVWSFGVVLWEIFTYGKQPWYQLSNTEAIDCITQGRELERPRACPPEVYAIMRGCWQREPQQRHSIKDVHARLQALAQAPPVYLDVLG
For assay [5], the target named is T2, High affinity nerve growth factor receptor. In words: Binding affinity to TRKA at 10 uM by high throughput binding assay relative to control.
Target sequence in this assay (P04629 33-796 limits assumed): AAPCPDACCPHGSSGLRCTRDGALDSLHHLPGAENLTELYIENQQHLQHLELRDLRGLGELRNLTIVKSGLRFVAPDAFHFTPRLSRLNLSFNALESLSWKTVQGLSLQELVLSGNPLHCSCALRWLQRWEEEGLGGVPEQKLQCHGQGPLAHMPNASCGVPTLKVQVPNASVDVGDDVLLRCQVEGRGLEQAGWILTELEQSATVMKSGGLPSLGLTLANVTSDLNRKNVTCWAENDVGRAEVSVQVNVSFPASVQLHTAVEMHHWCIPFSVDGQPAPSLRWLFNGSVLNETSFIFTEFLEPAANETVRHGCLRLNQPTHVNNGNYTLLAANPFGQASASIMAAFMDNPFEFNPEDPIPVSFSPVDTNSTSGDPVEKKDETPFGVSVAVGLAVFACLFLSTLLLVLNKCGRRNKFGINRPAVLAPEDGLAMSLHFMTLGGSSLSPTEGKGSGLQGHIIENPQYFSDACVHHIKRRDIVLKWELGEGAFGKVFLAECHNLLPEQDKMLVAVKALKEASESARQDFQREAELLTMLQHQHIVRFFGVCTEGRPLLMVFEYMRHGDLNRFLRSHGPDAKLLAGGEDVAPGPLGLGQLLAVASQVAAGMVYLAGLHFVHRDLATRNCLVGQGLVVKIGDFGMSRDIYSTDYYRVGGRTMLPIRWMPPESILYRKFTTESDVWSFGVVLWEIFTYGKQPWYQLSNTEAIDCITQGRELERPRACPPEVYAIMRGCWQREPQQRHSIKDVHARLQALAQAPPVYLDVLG
Assay [6] has as its system MCF7. In words: cells. The following applies: Homo sapiens, MCF7, 48 h.
Description: (§1) Cytotoxicity against human MCF7 cells after 48 hrs by MTT assay
Assay [7] concerns the target T2, High affinity nerve growth factor receptor. In words: Inhibition of TRKA assessed as [gamma33P]ATP incorporation into substrate.
Target sequence in this assay (P04629 whole entry): as the sequence (P04629 whole entry) above
In assay [8] the test system is MCF7. In words: Induction of apoptosis in human MCF7 cells assessed as increase in cytochrome C expression at 10 uM after 24 hrs by immunofluorescence staining method. The class given is functional, cell-based.
For assay [9], the target named is T2, High affinity nerve growth factor receptor. The following applies: MCF7, 0.1 to 10 uM.
Target sequence in this assay (P04629 33-796 limits assumed): as the sequence (P04629 33-796 limits assumed) above
Description: Inhibition of TRKA-induced AKT phosphorylation in human MCF7 cells at 0.1 to 10 uM by Western blot analysis
Assay [10] has as its target 3-phosphoinositide-dependent protein kinase 1 (Homo sapiens) (UniProt O15530). Put plainly: Binding affinity to PDPK1 at 1 uM by high throughput binding assay relative to control.
In assay [11] the target is Mitogen-activated protein kinase 3 (Homo sapiens) (UniProt P27361). In words: Binding affinity to ERK1 at 1 uM by high throughput binding assay relative to control.
The target of assay [12] is Serine/threonine-protein kinase PAK 1 (Homo sapiens) (UniProt Q13153). In words: Binding affinity to PAK1 at 1 uM by high throughput binding assay relative to control.
Assay [13] deals with BDNF/NT-3 growth factors receptor (Homo sapiens) (UniProt Q16620). In words: Binding affinity to TRKB at 1 uM by high throughput binding assay relative to control.
Assay [14] deals with Rho-associated protein kinase 2 (Homo sapiens) (UniProt O75116). In words: Binding affinity to ROCK2 at 1 uM by high throughput binding assay relative to control.
Assay [15] has as its target Hepatocyte growth factor receptor (Homo sapiens) (UniProt P08581). In words: Binding affinity to MET at 1 uM by high throughput binding assay relative to control.
The target in assay [16] is Hypoxia-inducible factor 1-alpha (Homo sapiens) (UniProt Q16665). In words: Inhibition of HIF1alpha-mediated VEGF production in human MCF7 cells under hypoxic condition at 0.1 to 10 uM after 6 hrs. Type of assay: cell-based.
The target in assay [17] is T3, Mast/stem cell growth factor receptor Kit (Homo sapiens, UniProt P10721). In words: Inhibition of KIT by radiometric kinase assay.
Assay [18] has as its target T3, Mast/stem cell growth factor receptor Kit. Put plainly: Binding affinity to KIT at 1 uM by high throughput binding assay relative to control.
Assay [19] has as its target Dual specificity mitogen-activated protein kinase kinase 2 (Homo sapiens) (UniProt P36507). Put plainly: Binding affinity to MEK2 at 1 uM by high throughput binding assay relative to control.
Assay [20] has as its system MCF7. In words: Induction of apoptosis in human MCF7 cells assessed as increase in Bax expression at 10 uM after 24 hrs by immunofluorescence staining method. The class given is functional, cell-based.
The subject of assay [21] is MCF7. In words: Inhibition of hypoxia-induced HIF1alpha expression in human MCF7 cells after 6 hrs. Type of assay: functional, cell-based.
Assay [22] addresses Aurora kinase A (Homo sapiens) (UniProt O14965). In words: Binding affinity to AURKA at 1 uM by high throughput binding assay relative to control.
The subject of assay [23] is MCF7. Put plainly: Induction of apoptosis in human MCF7 cells assessed as DNA strand breaks at 10 uM after 24 hrs by TUNEL assay. The class given is functional, cell-based.
The target of assay [24] is Cyclin-dependent kinase 19 (Homo sapiens) (UniProt Q9BWU1). Put plainly: Binding affinity to CDK11 at 1 uM by high throughput binding assay relative to control.
In assay [25] the target is Dual specificity mitogen-activated protein kinase kinase 1 (Homo sapiens) (UniProt Q02750). Put plainly: Binding affinity to MEK1 at 1 uM by high throughput binding assay relative to control.
Assay [26] concerns the target Serine/threonine-protein kinase pim-1 (Homo sapiens) (UniProt P11309). In words: Binding affinity to PIM1 at 1 uM by high throughput binding assay relative to control.
The subject of assay [27] is MCF7. In words: Cytotoxicity against human MCF7 cells assessed as growth inhibition at 0.1 to 50 uM after 48 hrs by MTT assay. The class given is functional. A general note: Tetrazolium assays rely on reduction of a dye to a coloured formazan, in cell work by metabolically active cells.
The test system of assay [28] is MCF7. In words: Induction of apoptosis in human MCF7 cells assessed as increase in cleaved caspase-3 expression at 10 uM after 24 hrs by immunofluorescence staining method. Type of assay: functional, cell-based.
Assay [29] relates to MCF7. In words: Induction of apoptosis in human MCF7 cells assessed as nuclear fragmentation at 10 uM after 24 hrs by DAPI staining. The class given is functional, cell-based.
Assay [30] has as its target Serine/threonine-protein kinase PLK3 (Homo sapiens) (UniProt Q9H4B4). In words: Binding affinity to PLK3 at 1 uM by high throughput binding assay relative to control.
Assay [31] concerns SK-BR-3. Put plainly: Cytotoxicity against human SKBR3 cells after 48 hrs by MTT assay. Type of assay: functional, cell-based.
Assay [32] has as its target Aurora kinase B (Homo sapiens) (UniProt Q96GD4). Put plainly: Binding affinity to AURKB at 1 uM by high throughput binding assay relative to control.
Assay [33] deals with Serine/threonine-protein kinase PLK1 (Homo sapiens) (UniProt P53350). In words: Binding affinity to PLK1 at 1 uM by high throughput binding assay relative to control.
For assay [34], the target named is RAC-beta serine/threonine-protein kinase (Homo sapiens) (UniProt P31751). Put plainly: Binding affinity to AKT2 at 1 uM by high throughput binding assay relative to control.
Assay [35] concerns MCF7. In words: Induction of apoptosis in human MCF7 cells assessed as decrease in Bcl-2 expression at 10 uM after 24 hrs by immunofluorescence staining method. Type of assay: functional, cell-based.
The target of assay [36] is cAMP-dependent protein kinase catalytic subunit alpha (Homo sapiens) (UniProt P17612). In words: Binding affinity to PKACalpha at 1 uM by high throughput binding assay relative to control.
The target of assay [37] is Platelet-derived growth factor receptor alpha (Homo sapiens) (UniProt P16234). Put plainly: Binding affinity to PDGFRalpha at 1 uM by high throughput binding assay relative to control.
The target in assay [38] is Tyrosine-protein kinase JAK2 (Homo sapiens) (UniProt O60674). In words: Binding affinity to JAK2 at 1 uM by high throughput binding assay relative to control.
For assay [39], the target named is Focal adhesion kinase 1 (Homo sapiens) (UniProt Q05397). In words: Binding affinity to FAK at 1 uM by high throughput binding assay relative to control.
Assay [40] addresses Epidermal growth factor receptor (Homo sapiens) (UniProt P00533). Put plainly: Binding affinity to EGFR at 1 uM by high throughput binding assay relative to control.
Assay [41] addresses Fibroblast growth factor receptor 2 (Homo sapiens) (UniProt P21802). Put plainly: Binding affinity to FGFR2 at 1 uM by high throughput binding assay relative to control.
Assay [42] addresses RAC-alpha serine/threonine-protein kinase (Homo sapiens) (UniProt P31749). Put plainly: Binding affinity to AKT1 at 1 uM by high throughput binding assay relative to control.
Assay [43] addresses T2, High affinity nerve growth factor receptor. The following applies: MCF7, 0.1 to 10 uM. The source holds these as a separate data set.
Target sequence in this assay (P04629 33-796 limits assumed): as above
Description: Inhibition of TRKA phosphorylation in human MCF7 cells at 0.1 to 10 uM by Western blot analysis
Assay [44] addresses Mitogen-activated protein kinase 14 (Homo sapiens) (UniProt Q16539). In words: Binding affinity to P38alpha at 1 uM by high throughput binding assay relative to control.
For assay [45], the target named is Tyrosine-protein kinase ABL1 (Homo sapiens) (UniProt P00519). Put plainly: Binding affinity to ABL1 at 1 uM by high throughput binding assay relative to control.
For assay [46], the system named is HUVEC. Put plainly: Antiangiogenic activity in HUVEC assessed as inhibition of wound-induced cell migration after 16 hrs. The class given is functional, cell-based. The following applies: Homo sapiens.
Assay [47] deals with T1, Phosphatidylinositol 4,5-bisphosphate 3-kinase catalytic subunit alpha isoform. In words: Binding affinity to PI3KCA at 1 uM by high throughput binding assay relative to control.
The test system of assay [48] is MCF7. In words: Induction of apoptosis in human MCF7 cells assessed as nuclear condensation at 10 uM after 24 hrs by DAPI staining. The class given is functional, cell-based.
In assay [49] the target is Serine/threonine-protein kinase B-raf (Homo sapiens) (UniProt P15056). Put plainly: Binding affinity to BRAF at 1 uM by high throughput binding assay relative to control.
The test system of assay [50] is HUVEC. In words: Antiangiogenic activity against HUVEC assessed as inhibition of VEGF-induced tube formation after 10 hrs by phase-contrast microscopic analysis. Type of assay: functional, cell-based. To be noted: Homo sapiens.
Assay [51] relates to MCF7. To be noted: Homo sapiens.
Description: as §1
In assay [52] the target is Glycogen synthase kinase-3 beta (Homo sapiens) (UniProt P49841). In words: Binding affinity to GSK3beta at 1 uM by high throughput binding assay relative to control.
Chain of Glycogen synthase kinase-3 beta (Homo sapiens) (P49841 whole entry, looked up): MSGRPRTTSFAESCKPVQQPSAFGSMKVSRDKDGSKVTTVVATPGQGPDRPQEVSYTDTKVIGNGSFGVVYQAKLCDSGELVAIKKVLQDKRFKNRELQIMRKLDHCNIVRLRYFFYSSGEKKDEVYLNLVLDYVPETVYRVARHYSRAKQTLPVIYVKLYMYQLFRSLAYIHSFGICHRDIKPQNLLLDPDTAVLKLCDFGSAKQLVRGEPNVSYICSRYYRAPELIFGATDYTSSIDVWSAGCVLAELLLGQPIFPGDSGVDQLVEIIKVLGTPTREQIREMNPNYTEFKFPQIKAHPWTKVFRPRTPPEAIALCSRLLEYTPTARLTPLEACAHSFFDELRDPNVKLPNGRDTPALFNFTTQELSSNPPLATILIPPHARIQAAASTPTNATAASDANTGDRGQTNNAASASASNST

T1 sequence (P42336 whole entry, canonical isoform): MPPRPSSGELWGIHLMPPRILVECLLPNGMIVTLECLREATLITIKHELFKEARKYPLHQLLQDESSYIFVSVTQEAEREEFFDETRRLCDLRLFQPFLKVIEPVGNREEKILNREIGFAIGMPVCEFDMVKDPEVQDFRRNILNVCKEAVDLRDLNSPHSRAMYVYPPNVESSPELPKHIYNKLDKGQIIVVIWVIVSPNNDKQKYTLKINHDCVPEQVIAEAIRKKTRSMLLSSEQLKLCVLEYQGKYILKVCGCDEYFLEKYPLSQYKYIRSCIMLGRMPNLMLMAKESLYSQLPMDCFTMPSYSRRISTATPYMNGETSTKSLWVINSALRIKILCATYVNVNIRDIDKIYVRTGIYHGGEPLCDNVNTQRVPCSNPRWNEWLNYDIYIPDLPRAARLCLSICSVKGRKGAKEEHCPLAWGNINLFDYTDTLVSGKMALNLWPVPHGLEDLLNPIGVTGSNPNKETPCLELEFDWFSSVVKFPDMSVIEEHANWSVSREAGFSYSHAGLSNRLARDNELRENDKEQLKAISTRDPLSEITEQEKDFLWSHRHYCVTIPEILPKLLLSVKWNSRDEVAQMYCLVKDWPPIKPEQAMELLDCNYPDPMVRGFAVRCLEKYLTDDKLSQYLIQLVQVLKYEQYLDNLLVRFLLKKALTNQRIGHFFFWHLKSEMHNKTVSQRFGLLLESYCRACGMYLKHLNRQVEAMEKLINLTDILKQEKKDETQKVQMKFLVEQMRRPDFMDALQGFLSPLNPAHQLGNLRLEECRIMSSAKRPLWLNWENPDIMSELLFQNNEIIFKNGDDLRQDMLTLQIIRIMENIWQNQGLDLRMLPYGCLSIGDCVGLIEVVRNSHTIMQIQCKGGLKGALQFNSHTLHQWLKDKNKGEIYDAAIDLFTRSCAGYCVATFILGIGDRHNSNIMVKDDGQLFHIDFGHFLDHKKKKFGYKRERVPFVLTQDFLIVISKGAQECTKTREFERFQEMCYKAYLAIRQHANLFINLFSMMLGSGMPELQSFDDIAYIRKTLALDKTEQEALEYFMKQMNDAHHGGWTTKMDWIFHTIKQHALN
T3 sequence (P10721 whole entry): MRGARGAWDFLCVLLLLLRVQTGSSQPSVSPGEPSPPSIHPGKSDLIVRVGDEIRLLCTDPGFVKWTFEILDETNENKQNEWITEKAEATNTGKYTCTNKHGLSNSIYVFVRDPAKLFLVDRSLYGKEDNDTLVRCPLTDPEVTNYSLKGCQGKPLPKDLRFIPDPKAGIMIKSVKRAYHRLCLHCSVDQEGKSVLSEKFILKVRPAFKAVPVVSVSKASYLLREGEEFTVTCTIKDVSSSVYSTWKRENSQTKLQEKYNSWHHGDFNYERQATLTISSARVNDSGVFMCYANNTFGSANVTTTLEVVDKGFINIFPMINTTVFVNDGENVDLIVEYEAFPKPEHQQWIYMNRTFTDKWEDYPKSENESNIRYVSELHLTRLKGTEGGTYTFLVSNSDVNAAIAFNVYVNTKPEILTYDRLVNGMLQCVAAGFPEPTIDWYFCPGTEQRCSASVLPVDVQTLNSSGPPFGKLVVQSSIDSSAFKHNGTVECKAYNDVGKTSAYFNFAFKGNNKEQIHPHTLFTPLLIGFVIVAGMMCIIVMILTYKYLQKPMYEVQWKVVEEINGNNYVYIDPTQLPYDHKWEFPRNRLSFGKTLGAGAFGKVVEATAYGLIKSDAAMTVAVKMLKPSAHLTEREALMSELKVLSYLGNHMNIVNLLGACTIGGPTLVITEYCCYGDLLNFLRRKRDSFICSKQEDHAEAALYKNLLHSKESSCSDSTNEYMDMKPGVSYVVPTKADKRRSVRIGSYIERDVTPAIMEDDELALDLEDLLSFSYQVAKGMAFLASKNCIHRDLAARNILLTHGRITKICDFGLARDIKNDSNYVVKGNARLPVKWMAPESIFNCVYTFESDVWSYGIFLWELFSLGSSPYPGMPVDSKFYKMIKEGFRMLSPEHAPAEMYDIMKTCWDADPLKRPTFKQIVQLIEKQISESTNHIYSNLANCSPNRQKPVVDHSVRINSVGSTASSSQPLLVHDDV
Chain of 3-phosphoinositide-dependent protein kinase 1 (Homo sapiens) (O15530 whole entry): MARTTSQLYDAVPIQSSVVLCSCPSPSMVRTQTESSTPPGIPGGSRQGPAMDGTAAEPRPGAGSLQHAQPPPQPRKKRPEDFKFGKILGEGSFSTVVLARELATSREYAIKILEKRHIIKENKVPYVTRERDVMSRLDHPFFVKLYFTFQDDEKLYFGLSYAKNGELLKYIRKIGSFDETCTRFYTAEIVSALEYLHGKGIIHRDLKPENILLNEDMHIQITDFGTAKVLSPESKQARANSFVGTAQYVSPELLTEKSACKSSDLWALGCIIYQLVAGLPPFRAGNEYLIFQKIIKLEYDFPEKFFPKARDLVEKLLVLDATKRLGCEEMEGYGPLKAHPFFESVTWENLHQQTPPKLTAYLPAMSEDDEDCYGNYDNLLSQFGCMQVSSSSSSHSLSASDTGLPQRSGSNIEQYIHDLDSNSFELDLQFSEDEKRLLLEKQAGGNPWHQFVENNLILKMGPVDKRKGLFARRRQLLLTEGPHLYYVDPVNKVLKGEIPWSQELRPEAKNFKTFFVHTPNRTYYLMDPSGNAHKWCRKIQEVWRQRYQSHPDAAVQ
Chain of Serine/threonine-protein kinase pim-1 (Homo sapiens) (P11309 whole entry, looked up): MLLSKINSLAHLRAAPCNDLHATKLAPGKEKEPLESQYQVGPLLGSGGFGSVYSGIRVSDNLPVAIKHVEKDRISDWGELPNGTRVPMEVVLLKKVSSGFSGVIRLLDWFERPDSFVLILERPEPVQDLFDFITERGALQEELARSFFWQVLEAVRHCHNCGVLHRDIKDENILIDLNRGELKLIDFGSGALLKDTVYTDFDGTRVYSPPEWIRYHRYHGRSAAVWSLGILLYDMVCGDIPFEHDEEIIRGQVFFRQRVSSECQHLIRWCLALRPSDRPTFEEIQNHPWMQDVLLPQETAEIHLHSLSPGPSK

A word on the Kd: it is a measure of binding affinity in units of concentration. The low end stands for tighter binding, the high end for weaker binding. `COc1ccc(-c2c[nH]c3ncc(-c4cncc(NS(=O)(=O)c5ccccc5)c4)cc23)cc1OC`: the Selectivity ratio in assay [1] was found to be 0.33. Besides, the results for the Kd in assay [2] and in [4] were 48 nM and 145 nM, respectively. Further, the Activity came to 0.05% in assay [3] and 0.8% in assay [5].

With `N#Cc1cccc(-c2cnc3[nH]cc(-c4cccc(N)c4)c3c2)c1`, the Selectivity ratio in assay [1] came out at 109. Besides, the dissociation constant (Kd) in assay [2] was determined as 12000 nM; in assay [4] it was 110 nM. Further, the Activity in assay [3] came to 48%; in assay [5], 0.65%.

Consider `Nc1cccc(-c2cnc3[nH]cc(-c4cccnc4)c3c2)c1`, for which the Selectivity ratio in [1] turned out to be 60. The values for the Kd in [2] and in assay [4] were 4500 nM and 75 nM, respectively. Further, the Activity in [3] came out at 42%; in assay [5], 0.2%.

As for `COc1ccc(-c2c[nH]c3ncc(-c4cncc(N)c4)cc23)cc1OC`, in assay [1], the Selectivity ratio is 17. In addition, the dissociation constant (Kd) in assay [2] worked out at 960 nM; in assay [4], 58 nM. In addition, the Activity in [3] was 12%; in assay [5] it was 0.05%.

Consider `COc1ccc(-c2c[nH]c3ncc(-c4cccc(NS(=O)(=O)c5ccccc5)c4)cc23)cc1OC`, for which the Selectivity ratio in assay [1] was determined as 25. The figures for the Kd in assay [2] and in [4] were 2300 nM and 91 nM, respectively. In addition, the Activity in [3] is 31%; in assay [5], 0.2%.

As a reminder, the IC50 is the midpoint of a concentration-inhibition curve. As for `Nc1cccc(-c2cnc3[nH]cc(-c4ccncc4)c3c2)c1`, the figures for the half-maximal inhibitory concentration (IC50) in [6] and in [7] were 2.3 µM and 42.7 nM, respectively. The figures for the Kd in assay [2] and in assay [4] were 2900 nM and 64 nM, respectively. In addition, the Activity came to 31% in assay [3] and 0% in assay [5].

Regarding `Nc1cc(NS(=O)(=O)c2cccc(C(F)(F)F)c2)cc(-c2cnc3[nH]cc(-c4ccncc4)c3c2)c1`, the outcome in assay [8], in [20], in assay [23], in assay [28], in [29] and in [35] was Active. Besides, the result in [48] was Active. The inhibition entry in [9], in assay [16] and in assay [43] was “Active” in each case. In addition, the concentration for half-maximal inhibition (IC50) in [6] is 4.2 µM; in [17] it was 145 nM; in [7], 1.67 nM. For the same molecule, the Activity in [10] is 90%; in assay [11], 100%; in assay [12], 79%; in [13] it was 1.2%; in assay [14], 50%; in [15], 96%. The Activity worked out at 3% in assay [18]; 100% in assay [19]; 100% in [22]; 26% in assay [24]; 100% in assay [25]; 97% in assay [26]. Further, the Activity in [30] is 75%; in assay [31], “Dose-dependent effect”; in assay [32], 85%; in assay [33], 100%; in assay [34], 100%; in [36] it was 88%. For the same molecule, the Activity was 69% in assay [37]; 34% in [38]; 88% in assay [39]; 100% in assay [40]; 61% in assay [41]; 94% in assay [42]. The Activity in assay [44] was 100%; in [45] it was 81%; in assay [47], 64%; in [49], 100%; in assay [51], “Dose-dependent effect”; in [52] it was 81%. Further, the inhibition result in assay [21], in assay [46] and in assay [50] was “Dose-dependent effect” throughout. Moreover, the “growth inhibition (GI)” value in assay [27] worked out at 40%.
